Assay results from PubChem BioAssay (NCI).
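Cultured in 96-well plates, cells were exposed to test compound for 48 hours across five concentrations. The concentration for full growth arrest is given as TGI.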

Experiments:
Test in all cases: NCI tumour cell line growth inhibition, 48 h
[1] = test system: SR leukemia
[2] = test system: KM12 colon
[3] = test system: BT-549 breast
[4] = test system: HT29 colon
[5] = test system: CAKI-1 renal
[6] = test system: OVCAR-4 ovarian
[7] = test system: M14 melanoma
[8] = test system: SK-MEL-28 melanoma
[9] = test system: MDA-N
[10] = test system: OVCAR-5 ovarian
[11] = test system: IGROV1 ovarian
[12] = test system: SK-OV-3 ovarian
[13] = test system: SF-268 CNS
[14] = test system: DU-145 prostate
[15] = test system: HCT-116 colon
[16] = test system: ACHN renal
[17] = test system: SK-MEL-2 melanoma
[18] = test system: TK-10 renal
[19] = test system: SF-295 CNS
[20] = test system: MALME-3M melanoma
[21] = test system: RXF 393 renal
[22] = test system: 786-0 renal
[23] = test system: NCI/ADR-RES ovarian
[24] = test system: OVCAR-3 ovarian
[25] = test system: MDA-MB-435
[26] = test system: MDA-MB-231 breast
[27] = test system: RPMI-8226 leukemia
[28] = test system: NCI-H460 lung
[29] = test system: HOP-92 NSCLC
[30] = test system: EKVX NSCLC
[31] = test system: U251 CNS
[32] = test system: SK-MEL-5 melanoma
[33] = test system: UACC-62 melanoma
[34] = test system: UACC-257 melanoma
[35] = test system: HCT-15 colon
[36] = test system: K-562 leukemia
[37] = test system: NCI-H522 lung
[38] = test system: SNB-75 CNS
[39] = test system: OVCAR-8 ovarian
[40] = test system: HS 578T breast
[41] = test system: COLO 205 colon
[42] = test system: HOP-62 NSCLC
[43] = test system: SW-620 colon
[44] = test system: MCF7 breast
[45] = test system: LOX IMVI melanoma
[46] = test system: MOLT-4 leukemia
[47] = test system: A498 renal
[48] = test system: T-47D breast
[49] = test system: SF-539 CNS
[50] = test system: HCC-2998 colon
[51] = test system: NCI-H23 lung
[52] = test system: SNB-19 CNS
[53] = test system: A549 NSCLC
[54] = test system: UO-31 renal
[55] = test system: SN12C renal
[56] = test system: PC-3 prostate
[57] = test system: HL-60(TB) leukemia
[58] = test system: CCRF-CEM leukemia
[59] = test system: NCI-H226 lung

## CC(=O)Oc1ccc(/C=C/C(=O)NCCOC(=O)/C=C/c2ccc(OC(C)=O)c(OC(C)=O)c2)cc1OC(C)=O
[1]
  TGI: > 100 µM
[2]
  TGI: > 100 µM
[3]
  TGI: > 100 µM
[4]
  TGI: > 100 µM
[5]
  TGI: > 100 µM
[6]
  TGI: > 100 µM
[7]
  TGI: 74.5 µM
[8]
  TGI: > 100 µM
[9]
  TGI: > 100 µM
[10]
  TGI: 97.6 µM
[11]
  TGI: > 100 µM
[12]
  TGI: > 100 µM
[13]
  TGI: > 100 µM
[14]
  TGI: > 100 µM
[15]
  TGI: 39.2 µM
[16]
  TGI: > 100 µM
[17]
  TGI: > 100 µM
[18]
  TGI: > 100 µM
[19]
  TGI: 76.7 µM
[20]
  TGI: > 100 µM
[21]
  TGI: 47.4 µM
[22]
  TGI: 84.9 µM
[23]
  TGI: > 100 µM
[24]
  TGI: 42 µM
[25]
  TGI: > 100 µM
[26]
  TGI: > 100 µM
[27]
  TGI: 90.5 µM
[28]
  TGI: > 100 µM
[29]
  TGI: 95.6 µM
[30]
  TGI: > 100 µM
[31]
  TGI: > 100 µM
[32]
  TGI: 47.1 µM
[33]
  TGI: 49.1 µM
[34]
  TGI: > 100 µM
[35]
  TGI: > 100 µM
[36]
  TGI: > 100 µM
[37]
  TGI: 29.6 µM
[38]
  TGI: 79.6 µM
[39]
  TGI: > 100 µM
[40]
  TGI: > 100 µM
[41]
  TGI: > 100 µM
[42]
  TGI: > 100 µM
[43]
  TGI: 61.8 µM
[44]
  TGI: > 100 µM
[45]
  TGI: 38.6 µM
[46]
  TGI: > 100 µM
[47]
  TGI: > 100 µM
[48]
  TGI: 98.9 µM
[49]
  TGI: > 100 µM
[50]
  TGI: > 100 µM
[51]
  TGI: 79.4 µM
[52]
  TGI: > 100 µM
[53]
  TGI: > 100 µM
[54]
  TGI: 83.3 µM
[55]
  TGI: 68.5 µM
[56]
  TGI: > 100 µM

## COC(=O)[C@]1(C)CCCC2(C)C3=C(CCC21)CC1(CC3)SCCS1 (stereo not given in full)
[1]
  TGI: > 10 µM
[2]
  TGI: > 10 µM
[3]
  TGI: > 10 µM
[4]
  TGI: > 10 µM
[5]
  TGI: > 10 µM
[6]
  TGI: > 10 µM
[7]
  TGI: > 10 µM
[8]
  TGI: > 10 µM
[57]
  TGI: > 10 µM
[9]
  TGI: > 10 µM
[11]
  TGI: > 10 µM
[12]
  TGI: > 10 µM
[13]
  TGI: > 10 µM
[14]
  TGI: > 10 µM
[15]
  TGI: > 10 µM
[16]
  TGI: > 10 µM
[18]
  TGI: > 10 µM
[20]
  TGI: > 10 µM
[22]
  TGI: > 10 µM
[23]
  TGI: > 10 µM
[24]
  TGI: > 10 µM
[25]
  TGI: > 10 µM
[26]
  TGI: > 10 µM
[27]
  TGI: > 10 µM
[29]
  TGI: > 10 µM
[30]
  TGI: > 10 µM
[31]
  TGI: > 10 µM
[32]
  TGI: > 10 µM
[33]
  TGI: > 10 µM
[34]
  TGI: > 10 µM
[35]
  TGI: > 10 µM
[36]
  TGI: > 10 µM
[37]
  TGI: > 10 µM
[58]
  TGI: > 10 µM
[38]
  TGI: > 10 µM
[39]
  TGI: > 10 µM
[40]
  TGI: > 10 µM
[41]
  TGI: > 10 µM
[42]
  TGI: > 10 µM
[43]
  TGI: > 10 µM
[44]
  TGI: > 10 µM
[46]
  TGI: > 10 µM
[47]
  TGI: > 10 µM
[48]
  TGI: > 10 µM
[49]
  TGI: > 10 µM
[50]
  TGI: > 10 µM
[51]
  TGI: > 10 µM
[52]
  TGI: > 10 µM
[53]
  TGI: > 10 µM
[55]
  TGI: > 10 µM
[56]
  TGI: > 10 µM

## CCOC(=O)[C@@H]1C[C@@H]1c1ccc(O)c(O)c1
[1]
  TGI: > 100 µM
[2]
  TGI: 82.2 µM
[3]
  TGI: 75.9 µM
[4]
  TGI: > 100 µM
[5]
  TGI: > 100 µM
[7]
  TGI: 25.2 µM
[8]
  TGI: > 100 µM
[9]
  TGI: 35.1 µM
[10]
  TGI: > 100 µM
[11]
  TGI: > 100 µM
[59]
  TGI: 97.4 µM
[12]
  TGI: > 100 µM
[13]
  TGI: > 100 µM
[14]
  TGI: > 100 µM
[15]
  TGI: 32.7 µM
[16]
  TGI: > 100 µM
[17]
  TGI: 68.8 µM
[18]
  TGI: > 100 µM
[19]
  TGI: > 100 µM
[20]
  TGI: > 100 µM
[21]
  TGI: 54 µM
[22]
  TGI: 34.7 µM
[23]
  TGI: > 100 µM
[24]
  TGI: 67.8 µM
[25]
  TGI: 34.5 µM
[26]
  TGI: 27.8 µM
[27]
  TGI: 77 µM
[28]
  TGI: > 100 µM
[29]
  TGI: > 100 µM
[30]
  TGI: > 100 µM
[31]
  TGI: > 100 µM
[32]
  TGI: 27.5 µM
[33]
  TGI: 27 µM
[34]
  TGI: > 100 µM
[35]
  TGI: > 100 µM
[36]
  TGI: 32.9 µM
[37]
  TGI: 26.5 µM
[39]
  TGI: 52.2 µM
[40]
  TGI: > 100 µM
[41]
  TGI: > 100 µM
[42]
  TGI: > 100 µM
[43]
  TGI: 42.2 µM
[44]
  TGI: 35.2 µM
[46]
  TGI: 22.5 µM
[48]
  TGI: 51.7 µM
[49]
  TGI: 49.3 µM
[50]
  TGI: 67.7 µM
[51]
  TGI: > 100 µM
[52]
  TGI: > 100 µM
[53]
  TGI: > 100 µM
[54]
  TGI: 60.9 µM
[55]
  TGI: > 100 µM
[56]
  TGI: > 100 µM
